Where two headings read alike, the source gives them in different places.
What was measured:
Caenorhabditis elegans = test: Toxicity test, adult Caenorhabditis elegans, 96 well micro plate; type: in vivo; details: Caenorhabditis elegans
Protocol: (§1) Methodology: Toxicity tests were conducted using J2 juveniles of Meloidogyne incognita adult Caenorhabditis elegans collected from nematode-infested tomato plant roots and culture Petri plates, respectively. Test concentrations of 50, 100, 200, 300, or 400 ppm were prepared in 0.2% dimethylsulfoxide (DMSO) in tap water. Aliquots (300 microliters (ul)) were applied to a 96 well micro plate and a 20 ul aqueous solution containing nematodes was added. The number of nematodes in 20 ul ranged from 17 to 30. Micro plates were sealed with Parafilm™ and incubated at room temperature. Similar tests conducted with 0.2% DMSO in tap water served as controls. Nematode mortality was checked at 24, 48, 72, 120, and 168 hr after incubation. Nematodes that were motionless for 30 sec when observed under a stereomicroscope were considered paralyzed and included in mortality counts. Each concentration was replicated five times and mean percent mortality was calculated after correcting for control mortality using Abbott's formula.
(§2) Data Analysis: Mortality data were analyzed using PROC PROBIT (SAS) program and LC50 values were estimated.

Meloidogyne incognita = test: Toxicity test, J2 juveniles of Meloidogyne incognita, 96 well micro plate; type: in vivo; details: Meloidogyne incognita
Protocol: as §1, §2

[1] = 24 h, read-out: Corrected Mortality (%)
[2] = 48 h, read-out: Corrected Mortality (%)
[3] = 72 h, read-out: Corrected Mortality (%)
[4] = 120 h, read-out: Corrected Mortality (%)
[5] = 168 h, read-out: Corrected Mortality (%)

Question: With `O=C(O)c1cc([N+](=O)[O-])ccc1NCCCc1ccccc1` [NPPB, 5-Nitro-2-(3-phenylpropylamino)benzoic acid] as the molecule, how does the mortality at 50 ppm (Caenorhabditis elegans; 24 h) read?
Answer: 14%

Question: And the mortality at 100 ppm (Caenorhabditis elegans; 24 h)?
Answer: 17%

Question: What about the mortality at 200 ppm (Caenorhabditis elegans; 24 h) of the same molecule?
Answer: 20%

Question: What about the mortality at 300 ppm (Caenorhabditis elegans; 24 h) of the same molecule?
Answer: 22%

Question: And the mortality at 400 ppm (Caenorhabditis elegans; 24 h)?
Answer: 24%

Question: And the mortality at 50 ppm (Caenorhabditis elegans; [1])?
Answer: 10%

Question: And the mortality at 100 ppm (Caenorhabditis elegans; [1])?
Answer: 14%

Question: And the mortality at 200 ppm (Caenorhabditis elegans; [1])?
Answer: 18%

Question: And the mortality at 300 ppm (Caenorhabditis elegans; [1])?
Answer: 20%

Question: And the mortality at 400 ppm (Caenorhabditis elegans; [1])?
Answer: 22%

Question: And the mortality at 50 ppm (Caenorhabditis elegans; 48 h)?
Answer: 26%

Question: And the mortality at 100 ppm (Caenorhabditis elegans; 48 h)?
Answer: 36%

Question: And the mortality at 200 ppm (Caenorhabditis elegans; 48 h)?
Answer: 44%

Question: And the mortality at 300 ppm (Caenorhabditis elegans; 48 h)?
Answer: 49%

Question: And the mortality at 400 ppm (Caenorhabditis elegans; 48 h)?
Answer: 53%

Question: What about the mortality at 50 ppm (Caenorhabditis elegans; [2]) of the same molecule?
Answer: 22%

Question: And the mortality at 100 ppm (Caenorhabditis elegans; [2])?
Answer: 33%

Question: What about the mortality at 200 ppm (Caenorhabditis elegans; [2]) of the same molecule?
Answer: 41%

Question: And the mortality at 300 ppm (Caenorhabditis elegans; [2])?
Answer: 46%

Question: What about the mortality at 400 ppm (Caenorhabditis elegans; [2]) of the same molecule?
Answer: 51%

Question: And the mortality at 50 ppm (Caenorhabditis elegans; 72 h)?
Answer: 47%

Question: What about the mortality at 100 ppm (Caenorhabditis elegans; 72 h) of the same molecule?
Answer: 62%

Question: And the mortality at 200 ppm (Caenorhabditis elegans; 72 h)?
Answer: 73%

Question: What about the mortality at 300 ppm (Caenorhabditis elegans; 72 h) of the same molecule?
Answer: 80%

Question: What about the mortality at 400 ppm (Caenorhabditis elegans; 72 h) of the same molecule?
Answer: 84%

Question: What about the mortality at 50 ppm (Caenorhabditis elegans; [3]) of the same molecule?
Answer: 43%

Question: What about the mortality at 100 ppm (Caenorhabditis elegans; [3]) of the same molecule?
Answer: 59%

Question: What about the mortality at 200 ppm (Caenorhabditis elegans; [3]) of the same molecule?
Answer: 71%

Question: What about the mortality at 300 ppm (Caenorhabditis elegans; [3]) of the same molecule?
Answer: 78%

Question: What about the mortality at 400 ppm (Caenorhabditis elegans; [3]) of the same molecule?
Answer: 83%

Question: What about the mortality at 50 ppm (Caenorhabditis elegans; 120 h) of the same molecule?
Answer: 70%

Question: What about the mortality at 100 ppm (Caenorhabditis elegans; 120 h) of the same molecule?
Answer: 85%

Question: What about the mortality at 200 ppm (Caenorhabditis elegans; 120 h) of the same molecule?
Answer: 93%

Question: What about the mortality at 300 ppm (Caenorhabditis elegans; 120 h) of the same molecule?
Answer: 97%

Question: And the mortality at 400 ppm (Caenorhabditis elegans; 120 h)?
Answer: 100%

Question: What about the mortality at 50 ppm (Caenorhabditis elegans; [4]) of the same molecule?
Answer: 66%

Question: What about the mortality at 100 ppm (Caenorhabditis elegans; [4]) of the same molecule?
Answer: 83%

Question: And the mortality at 200 ppm (Caenorhabditis elegans; [4])?
Answer: 92%

Question: What about the mortality at 300 ppm (Caenorhabditis elegans; [4]) of the same molecule?
Answer: 97%

Question: What about the mortality at 400 ppm (Caenorhabditis elegans; [4]) of the same molecule?
Answer: 100%

Question: What about the mortality at 50 ppm (Caenorhabditis elegans; 168 h) of the same molecule?
Answer: 93%

Question: And the mortality at 100 ppm (Caenorhabditis elegans; 168 h)?
Answer: 99%

Question: And the mortality at 200 ppm (Caenorhabditis elegans; 168 h)?
Answer: 100%

Question: What about the mortality at 300 ppm (Caenorhabditis elegans; 168 h) of the same molecule?
Answer: 100%

Question: And the mortality at 400 ppm (Caenorhabditis elegans; 168 h)?
Answer: 100%

Question: What about the mortality at 50 ppm (Caenorhabditis elegans; [5]) of the same molecule?
Answer: 92%

Question: What about the mortality at 100 ppm (Caenorhabditis elegans; [5]) of the same molecule?
Answer: 99%

Question: What about the mortality at 200 ppm (Caenorhabditis elegans; [5]) of the same molecule?
Answer: 100%

Question: What about the mortality at 300 ppm (Caenorhabditis elegans; [5]) of the same molecule?
Answer: 100%

Question: What about the mortality at 400 ppm (Caenorhabditis elegans; [5]) of the same molecule?
Answer: 100%

Question: What about the mortality at 50 ppm (Meloidogyne incognita; 24 h) of the same molecule?
Answer: 12%

Question: What about the mortality at 100 ppm (Meloidogyne incognita; 24 h) of the same molecule?
Answer: 14%

Question: What about the mortality at 200 ppm (Meloidogyne incognita; 24 h) of the same molecule?
Answer: 18%

Question: What about the mortality at 300 ppm (Meloidogyne incognita; 24 h) of the same molecule?
Answer: 20%

Question: What about the mortality at 400 ppm (Meloidogyne incognita; 24 h) of the same molecule?
Answer: 27%

Question: What about the mortality at 50 ppm (Meloidogyne incognita; [1]) of the same molecule?
Answer: 8%

Question: And the mortality at 100 ppm (Meloidogyne incognita; [1])?
Answer: 10%

Question: And the mortality at 200 ppm (Meloidogyne incognita; [1])?
Answer: 15%

Question: And the mortality at 300 ppm (Meloidogyne incognita; [1])?
Answer: 17%

Question: What about the mortality at 400 ppm (Meloidogyne incognita; [1]) of the same molecule?
Answer: 24%

Question: What about the mortality at 50 ppm (Meloidogyne incognita; 48 h) of the same molecule?
Answer: 22%

Question: What about the mortality at 100 ppm (Meloidogyne incognita; 48 h) of the same molecule?
Answer: 32%

Question: And the mortality at 200 ppm (Meloidogyne incognita; 48 h)?
Answer: 41%

Question: And the mortality at 300 ppm (Meloidogyne incognita; 48 h)?
Answer: 43%

Question: What about the mortality at 400 ppm (Meloidogyne incognita; 48 h) of the same molecule?
Answer: 56%

Question: And the mortality at 50 ppm (Meloidogyne incognita; [2])?
Answer: 17%

Question: And the mortality at 100 ppm (Meloidogyne incognita; [2])?
Answer: 28%

Question: What about the mortality at 200 ppm (Meloidogyne incognita; [2]) of the same molecule?
Answer: 37%

Question: What about the mortality at 300 ppm (Meloidogyne incognita; [2]) of the same molecule?
Answer: 39%

Question: And the mortality at 400 ppm (Meloidogyne incognita; [2])?
Answer: 53%

Question: And the mortality at 50 ppm (Meloidogyne incognita; 72 h)?
Answer: 40%

Question: And the mortality at 100 ppm (Meloidogyne incognita; 72 h)?
Answer: 51%

Question: What about the mortality at 200 ppm (Meloidogyne incognita; 72 h) of the same molecule?
Answer: 66%

Question: What about the mortality at 300 ppm (Meloidogyne incognita; 72 h) of the same molecule?
Answer: 73%

Question: And the mortality at 400 ppm (Meloidogyne incognita; 72 h)?
Answer: 82%

Question: What about the mortality at 50 ppm (Meloidogyne incognita; [3]) of the same molecule?
Answer: 33%

Question: What about the mortality at 100 ppm (Meloidogyne incognita; [3]) of the same molecule?
Answer: 45%

Question: And the mortality at 200 ppm (Meloidogyne incognita; [3])?
Answer: 62%

Question: And the mortality at 300 ppm (Meloidogyne incognita; [3])?
Answer: 70%

Question: And the mortality at 400 ppm (Meloidogyne incognita; [3])?
Answer: 80%

Question: And the mortality at 50 ppm (Meloidogyne incognita; 120 h)?
Answer: 62%

Question: And the mortality at 100 ppm (Meloidogyne incognita; 120 h)?
Answer: 73%

Question: What about the mortality at 200 ppm (Meloidogyne incognita; 120 h) of the same molecule?
Answer: 90%

Question: What about the mortality at 300 ppm (Meloidogyne incognita; 120 h) of the same molecule?
Answer: 97%

Question: What about the mortality at 400 ppm (Meloidogyne incognita; 120 h) of the same molecule?
Answer: 100%

Question: What about the mortality at 50 ppm (Meloidogyne incognita; [4]) of the same molecule?
Answer: 56%

Question: What about the mortality at 100 ppm (Meloidogyne incognita; [4]) of the same molecule?
Answer: 69%

Question: And the mortality at 200 ppm (Meloidogyne incognita; [4])?
Answer: 89%

Question: And the mortality at 300 ppm (Meloidogyne incognita; [4])?
Answer: 97%

Question: What about the mortality at 400 ppm (Meloidogyne incognita; [4]) of the same molecule?
Answer: 100%

Question: What about the mortality at 50 ppm (Meloidogyne incognita; 168 h) of the same molecule?
Answer: 89%

Question: And the mortality at 100 ppm (Meloidogyne incognita; 168 h)?
Answer: 93%

Question: What about the mortality at 200 ppm (Meloidogyne incognita; 168 h) of the same molecule?
Answer: 99%

Question: And the mortality at 300 ppm (Meloidogyne incognita; 168 h)?
Answer: 100%

Question: What about the mortality at 400 ppm (Meloidogyne incognita; 168 h) of the same molecule?
Answer: 100%

Question: What about the mortality at 50 ppm (Meloidogyne incognita; [5]) of the same molecule?
Answer: 87%

Question: And the mortality at 100 ppm (Meloidogyne incognita; [5])?
Answer: 92%

Question: And the mortality at 200 ppm (Meloidogyne incognita; [5])?
Answer: 99%

Question: What about the mortality at 300 ppm (Meloidogyne incognita; [5]) of the same molecule?
Answer: 100%

Question: And the mortality at 400 ppm (Meloidogyne incognita; [5])?
Answer: 100%
